Test results reported in PubChem BioAssay (NCI).
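Interpolation was linear, between the two tested concentrations surrounding the appropriate level; five concentrations were tested over 48 hours in 96-well plates. TGI: total growth inhibition.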

Columns and labels:
Experiment in all cases: NCI-60 cell line screen, 48 h
DLD-1 colon = test system: DLD-1 colon
DMS 114 small cell lung = test system: DMS 114 small cell lung
DMS 273 small cell lung = test system: DMS 273 small cell lung
HOP-18 NSCLC = test system: HOP-18 NSCLC
KM20L2 colon = test system: KM20L2 colon
LXFL 529 NSCLC = test system: LXFL 529 NSCLC
M19-MEL melanoma = test system: M19-MEL melanoma
SNB-78 CNS = test system: SNB-78 CNS
XF 498 CNS = test system: XF 498 CNS

| SMILES | TGI (DLD-1 colon) [µM] | TGI (DMS 114 small cell lung) [µM] | TGI (DMS 273 small cell lung) [µM] | TGI (HOP-18 NSCLC) [µM] | TGI (KM20L2 colon) [µM] | TGI (LXFL 529 NSCLC) [µM] | TGI (M19-MEL melanoma) [µM] | TGI (SNB-78 CNS) [µM] | TGI (XF 498 CNS) [µM] |
| --- | --- | --- | --- | --- | --- | --- | --- | --- | --- |
| COc1ccc(C[C@H](N)C(=O)N2C[C@@H](CO)C[C@@H](n3cnc4c(N(C)C)ncnc43)C2)cc1 | > 100 | > 100 | > 100 | > 100 | > 100 | > 100 | > 100 | > 100 | – |
| CC1=NN(C(=O)c2ccc(Cl)cc2)C(=O)/C1=C/c1ccco1 | > 100 | > 100 | – | – | > 100 | > 100 | > 100 | > 100 | > 100 |
| Cc1c2c(ccc3ccccc32)c[n+]2ccccc12 | > 100 | 19.8 | 28.5 | – | 77 | 28.3 | – | – | – |
| O=C1C2ON3c4ccccc4C(=O)C3(c3ccccc3)C2C(=O)N1c1ccccc1 (stereo not drawn) | > 100 | – | > 100 | > 100 | > 100 | > 100 | > 100 | > 100 | > 100 |
